# Like-named read-outs stand apart in the source and are kept apart here.
# Assays:
# [1] = test system: MCF-7 (breast cancer cell line); test: Antiproliferative MTT assay, MCF-7; format: cell-based; conditions: Homo sapiens, MCF7; MCF-7, MTT; read-out: Antiproliferative activity IC50 ± SEM, MCF-7
# Description: (§1) The MTT assay was performed using various cell lines in accordance with previously reported procedures[28]^,[29] to investigate the antiproliferative potential of VIa-k. Refer to Appendix A. […]
# (§2) added (in 200 μL medium to yield a final concentration of 0.1% v/v) to the wells of plates. A single compound was designated with four wells followed by incubation of […]
# (§3) After incubation, medium was removed completely from the plates followed by addition of MTT (0.4 mg/mL in medium) to each well and subsequent incubation of plates for 3h. MTT (along with the medium) was removed and DMSO (150μL) was added to each well of the culture plates, followed by vortexing and subsequent measurement of absorbance (at 540 nm) using microplate reader. The data are shown as percentage inhibition of proliferation in comparison with controls containing 4.2.1.2. Assay for antiproliferative effect […]
# (§4) The percentage cytotoxicity of compounds was calculated using the following […]
# (§5) Where ATC= Absorbance of treated cells and AC= Absorbance of control. […]
# (§6) used as positive control in the assay. […]
# [2] = test system: A-549 (epithelial cancer cell line); test: Antiproliferative MTT assay, A-549; format: cell-based; conditions: Homo sapiens, A549; A-549, MTT; read-out: Antiproliferative activity IC50 ± SEM, A-549
# Description: as §1, §2, §3, §4, §5, §6
# [3] = test system: four human cancer cell lines (Panc-1, MCF-7, HT-29, A-549); test: Antiproliferative MTT assay, average (GI50) over the four cancer cell lines; format: cell-based; conditions: for GI50: Homo sapiens, average of IC50 versus A-549, MCF-7, Panc-1, HT-29; for GI50 potency relative to VIi (less potent): ratio of GI50 values
# Description: The average (GI50) versus the four cancer cell lines was chosen for ease of manipulation.
# as §1, §2, §3, §4, §5, §6
# [4] = test system: Panc-1 (pancreatic cancer cell line); test: Antiproliferative MTT assay, Panc-1; format: cell-based; conditions: Homo sapiens; Panc-1, MTT; read-out: Antiproliferative activity IC50 ± SEM, Panc-1
# Description: as §1, §2, §3, §4, §5, §6
# [5] = MTT cell viability assay on normal mammary epithelial cells; format: cell-based; conditions: human, MCF-10A mammary epithelial cells, MCF-10A normal cells, 4 days incubation
# Description: A human mammary gland epithelial (MCF-10A) normal cell line was used to perform the viability test. The viability of compounds VIa-k was determined using the MTT assay after 4 days of incubation with MCF-10A cells[26]^,[27].
# The MTT assay was used to assess how the synthetic compounds impacted the viability of mammary epithelial cells (MCF-10A)[26]^,[27]. Appendix A. […]
# 4.2. Biological evaluation
# 4.2.1. Cytotoxic activity using MTT Assay and evaluation of IC50
# MTT assay was carried out to study the effect of compounds on mammary epithelial cells (MCF-10A)26,27. The medium in which cells were propagated contained Dulbecco's modified Eagle's medium (DMEM)/ Ham's F-12 medium (1:1) supplemented with epidermal growth factor (20 ng/mL), hydrocortisone (500 ng/mL), insulin (10 μg/mL), 2 mM glutamine and 10% foetal calf serum. After every 2-3 days, the cells were passaged using trypsin ethylenediamine tetra acetic acid (EDTA). The cells were seeded at a density of 10^4 cells mL-1 in flat-bottomed culture plates containing 96 wells each. […]
# A single compound was designated with four wells followed by incubation of plates for 96h at 37°C. After incubation, medium was removed completely from the plates followed by addition of MTT (0.4 mg/mL in medium) to each well and subsequent incubation of plates for 3h. MTT (along with the medium) was removed and DMSO (150μL) was added to each well of the culture plates, followed by vortexing and subsequent measurement of absorbance (at 540 nm) using microplate reader. […]
# [6] = test system: HT-29 (colon cancer cell line); test: Antiproliferative MTT assay, HT-29; format: cell-based; conditions: Homo sapiens; HT-29, MTT; read-out: Antiproliferative activity IC50 ± SEM, HT-29
# Description: as §1, §2, §3, §4, §5, §6
# BRAF^V600E [7] = target: T1, BRAF^V600E (Mus musculus, UniProt P28028, V585E); test: BRAF V600E kinase assay; format: biochemical; conditions: read-out: BRAF^V600E inhibition IC50 ± SEM
# T1 construct: Mouse full-length GST-tagged BRAFV600E; GST; purchased Invitrogen PV3849
# Description: An in vitro study was conducted to evaluate the anti-BRAF^V600E of VIc, VIf, VIg, VIi, and VIk[31]. […] An in vitro study[31] was conducted to evaluate the anti-BRAF^V600E of VIc, VIf, VIg, VIi, and Vik. See Appendix A.
# 4.2.1.4. BRAF kinase assay
# V600E mutant BRAF kinase assay was performed to investigate the activity of the most […]
# Mouse full-length GST-tagged BRAFV600E (7.5 ng, Invitrogen, PV3849) was pre-incubated with drug (1 µL) and assay dilution buffer (4 µL) for 60 min at 25 °C. In assay dilution buffer, a solution (5 µL) containing MgCl 2 (30 mM), ATP (200 µM), recombinant human full length (200 ng) […] N-terminal His-tagged MEK1 (Invitrogen) was added to start the assay, subsequent to incubation for 25 min at 25 °C. The assay was stopped using 5X protein denaturing buffer (LDS) solution (5 µL).
# To further denature the protein, heat (70° C) was applied for 5 min.
# NuPage gel plates (Invitrogen) were used to carry out electrophoresis (at 200 V). 10 µL of each reaction was loaded into the precast plates and electrophoresis was allowed to proceed. After completion of electrophoresis, the front part of the precast gel plate (holding hot ATP) was cut and afterw ards cast-off. The dried gel was developed using a […]
# that containing no inhibitor served as positive control. […]
# Human CDK2/A2 = Human CDK2/A2 (Homo sapiens, UniProt P24941); test: CDK2 inhibitory assay
# Description: Protein Kinase Assays. Human CDK2/A2 was purchased from New England Biolabs IC50 values for CDK2/A were determined according to the supplier’s instructions
# EGFR [8] = target: T2, EGFR (Homo sapiens, UniProt P00533); test: EGFR-TK inhibitory assay; format: biochemical; conditions: for IC50: EGFR-TK assay, read-out: EGFR inhibition IC50 ± SEM
# T2 construct: cytoplasmic domain (EGFR -CD, amino acids 645–1186); His6 (N); made in house; host or cells: Sf-9 insect cells (baculovirus, pBlueBacHis2B / pFASTBacHTc)
# Description: 4.2.1.3. EGFR inhibitory assay
# EGFR-TK assay was performed to evaluate the inhibitory potency of the tested compounds against EGFR30. Baculoviral expression vectors including pBlueBacHis2B […]
# sequence comprised a sequence that encoded (His) 6. Sf-9 cells were infected for 72h for protein expression. The pellets of Sf-9 cells were solubilized in a buffer containing sodium vanadate (100 µM), aprotinin (10 µg/mL), triton (1%), HEPES buffer (50mM), ammonium molybdate (10 µM), benzamidine HCl (16 µg/mL), NaCl (10 mM), leupeptin (10 µg/mL) and pepstatin (10 µg/mL) at 0°C for 20 min at pH 7.4, followed by centrifugation for 20 min. To eliminate the non-specifically bound material, a Ni-NTA super flow packed column was used to pass through and wash the crude extract supernatant first with 10 mM and then with 100 mM imidazole. […]
# NaCl (50 mM), HEPES (20 mM), glycerol (10%) and 1 µg/mL each of aprotinin, leupeptin and pepstatin for 120 min. The purification was performed either at 4 °C or on ice. To record autophosphorylation level, EGFR kinase assay was carried out on the basis of DELFIA/Time-Resolved Fluorometry. The compounds were first dissolved in DMSO […]
# pH 7.4. Each compound (10 µL) was incubated with recombinant enzyme (10 µL, 5 ng for EGFR, 1:80 dilution in 100 mM HEPES) for 10 min at 25 °C, subsequent to the addition of 5X buffer (10 µL, containing 2 mM MnCl2, 100 µM Na3VO4, 20 mM HEPES and 1 mM DTT) and ATP-MgCl2 (20 µL, containing 0.1 mM ATP and 50 mM MgCl 2) and incubation for 1h. The negative and positive controls were included in each plate by the incuba tion of enzyme either with or without ATP -MgCl2. The liquid was removed after incubation and the plates were washed thrice using wash buffer. Europium -tagged antiphosphotyrosine antibody (75 µL, 400 ng) was added to each well followed by incubation of 1h a nd then washing of the plates using buffer. The enhancement solution was added to each well and the signal was recorded at excitation and emission […]
# The autophosphorylation percentage inhibition by compounds was calculated using the following equation: […]
# Using the curves of percentage inhibition of eight concentrations of each compound, IC 50
# c-Met = test system: c-Met; parameters: method as in PMID 35667253; conditions: cited from earlier work
# four cancer cell lines = test system: four cancer cell lines; parameters: method as in PMID 35667253; conditions: read-out: GI50 against the tested four cancer cell lines; cited from earlier work
# EGFR [9] = target: T2, EGFR; parameters: method as in PMID 35667253; conditions: cited from earlier work
# CDK2 = test system: CDK2; parameters: method as in PMID 35667253; conditions: cited from earlier work
# p38α = test system: p38α; parameters: method as in earlier work; conditions: cited from earlier work
# BRAF^V600E [10] = test system: BRAF^V600E; parameters: method as in earlier work; conditions: cited from earlier work
# T2 sequence (P00533 669-1210): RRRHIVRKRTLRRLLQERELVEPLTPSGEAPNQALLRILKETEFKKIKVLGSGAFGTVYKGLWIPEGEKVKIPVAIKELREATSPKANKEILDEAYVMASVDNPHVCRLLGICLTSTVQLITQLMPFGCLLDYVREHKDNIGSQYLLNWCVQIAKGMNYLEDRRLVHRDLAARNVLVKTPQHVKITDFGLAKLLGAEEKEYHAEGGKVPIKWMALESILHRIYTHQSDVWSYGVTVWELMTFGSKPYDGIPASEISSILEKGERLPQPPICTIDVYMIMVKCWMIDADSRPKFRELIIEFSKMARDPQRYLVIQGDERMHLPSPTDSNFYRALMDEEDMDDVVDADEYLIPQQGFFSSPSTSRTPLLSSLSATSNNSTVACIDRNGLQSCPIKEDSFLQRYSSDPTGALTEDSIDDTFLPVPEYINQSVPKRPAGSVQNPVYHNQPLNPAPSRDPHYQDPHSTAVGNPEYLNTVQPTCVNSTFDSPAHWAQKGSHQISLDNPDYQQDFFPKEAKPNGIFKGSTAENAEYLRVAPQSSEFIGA
# T1 sequence (P28028 whole entry V585E): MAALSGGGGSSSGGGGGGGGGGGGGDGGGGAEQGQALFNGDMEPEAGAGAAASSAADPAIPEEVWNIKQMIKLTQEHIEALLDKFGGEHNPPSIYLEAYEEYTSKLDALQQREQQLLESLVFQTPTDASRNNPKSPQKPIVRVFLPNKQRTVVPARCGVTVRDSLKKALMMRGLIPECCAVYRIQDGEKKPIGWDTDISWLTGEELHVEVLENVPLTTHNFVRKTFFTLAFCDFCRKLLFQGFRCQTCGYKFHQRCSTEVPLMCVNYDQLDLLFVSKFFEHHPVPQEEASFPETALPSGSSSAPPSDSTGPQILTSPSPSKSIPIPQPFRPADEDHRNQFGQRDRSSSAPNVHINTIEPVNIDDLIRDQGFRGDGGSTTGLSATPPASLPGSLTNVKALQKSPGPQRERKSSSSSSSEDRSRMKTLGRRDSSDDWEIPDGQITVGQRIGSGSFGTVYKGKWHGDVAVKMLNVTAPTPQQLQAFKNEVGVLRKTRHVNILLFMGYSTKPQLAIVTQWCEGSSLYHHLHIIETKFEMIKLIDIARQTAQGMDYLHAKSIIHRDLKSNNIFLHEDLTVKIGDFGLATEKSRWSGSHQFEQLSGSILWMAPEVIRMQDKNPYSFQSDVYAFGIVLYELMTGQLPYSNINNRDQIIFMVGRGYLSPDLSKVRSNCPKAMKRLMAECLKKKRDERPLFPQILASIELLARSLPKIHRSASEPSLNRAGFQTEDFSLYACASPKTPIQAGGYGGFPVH
SMILES,IC50 [1] [nM],IC50 [2] [nM],GI50 [3] [nM],IC50 [4] [nM],melting point [°C],"viability at 4 days, 50 µM [5] [%]",IC50 [6] [nM],GI50 potency relative to VIi (less potent) [3],IC50 (BRAF^V600E [7]) [nM],IC50 (Human CDK2/A2) [nM],IC50 (EGFR [8]) [nM],EGFR potency relative to erlotinib (lower) (EGFR [8]; ratio of IC50 values) [fold],IC50 (c-Met) [nM],GI50 (four cancer cell lines) [nM],IC50 (EGFR [9]) [nM],IC50 (CDK2) [nM],IC50 (p38α) [nM],IC50 (BRAF^V600E [10]) [nM]
"Cc1ccc(C(N)=NOC(=O)/C=C/C=C/c2ccc3c(c2)OCO3)cc1 [VIe, N'-{[(2E,4E)-5-(2H-1,3-Benzodioxol-5-yl)penta-2,4-dienoyl]oxy}-4-methylbenzene-1-carboximidamide]",73 ± 7,69 ± 7,73,75 ± 7,185 to 188,89,75 ± 7,,,,,,,,,,,
"N/C(=N/OC(=O)/C=C/C=C/c1ccc2c(c1)OCO2)c1cccc2ccccc12 [VIj, N'-{[(2E,4E)-5-(2H-1,3-benzodioxol-5-yl)penta-2,4-dienoyl]oxy} naphthalene-1-carboximidamide]",81 ± 8,78 ± 8,83,84 ± 8,,85,88 ± 9,2 fold,,,,,,,,,,
"COc1ccc(C(N)=NOC(=O)/C=C/C=C/c2ccc3c(c2)OCO3)cc1OC [VIi, N'-{[(2E,4E)-5-(2H-1,3-benzodioxol-5-yl)penta-2,4-dienoyl]oxy}-3,4-dimethoxybenzene-1-carboximidamide]",39 ± 3,36 ± 4,39,40 ± 4,147 to 149,89,40 ± 4,,72 ± 7,17 ± 2,120 ± 10,,,,,,,
"NC(=NOC(=O)/C=C/C=C/c1ccc2c(c1)OCO2)c1cccc(Cl)c1 [VIg, N'-{[(2E,4E)-5-(2H-1,3-benzodioxol-5-yl)penta-2,4-dienoyl]oxy}-3-chlorobenzene-1-carboximidamide]",47 ± 5,42 ± 5,47,49 ± 5,163 to 165,87,49 ± 5,,63 ± 6,20 ± 2,96 ± 6,1.2,,,,,,
"COc1ccc(C(N)=NOC(=O)/C=C/C=C/c2ccc3c(c2)OCO3)cc1 [VId, N'-{[(2E,4E)-5-(2H-1,3-Benzodioxol-5-yl)penta-2,4-dienoyl]oxy}-4-methoxybenzene-1-carboximidamide]",52 ± 5,50 ± 5,54,57 ± 5,,91,57 ± 5,about 1.4 fold,,,,,,,,,,
"NC(=NOC(=O)/C=C/C=C/c1ccc2c(c1)OCO2)c1cccc(Br)c1 [VIh, N'-{[(2E,4E)-5-(2H-1,3-benzodioxol-5-yl)penta-2,4-dienoyl]oxy}-3-bromobenzene-1-carboximidamide]",64 ± 6,61 ± 6,65,69 ± 6,141 to 143,91,67 ± 6,,,,,,,,,,,
COc1cc(OC)cc(/C(N)=N/OC(=O)c2ccc3cn[nH]c3c2)c1 [Compound 5],,,,,,,,,,,,,4.1,770,89,14,,
CCCCCCn1c(-c2ccc(C(=O)O/N=C(\N)c3cccc4c3OCO4)cc2)nc(-c2ccccc2)c1-c1ccccc1 [Compound 4],,,,,,,,,,,,,,,,,190,330
"NC(=NOC(=O)/C=C/C=C/c1ccc2c(c1)OCO2)c1ccc(Cl)cc1 [VIb, N'-{[(2E,4E)-5-(2H-1,3-Benzodioxol-5-yl)penta-2,4-dienoyl]oxy}-4-chlorobenzene-1-carboximidamide]",57 ± 6,55 ± 6,57,59 ± 6,157 to 160,85,58 ± 6,,,,,,,,,,,
"NC(=NOC(=O)/C=C/C=C/c1ccc2c(c1)OCO2)c1ccccc1 [VIa, N'-{[(2E,4E)-5-(2H-1,3-Benzodioxol-5-yl)penta-2,4-dienoyl]oxy}benzene carboximidamide]",97 ± 10,95 ± 10,100,104 ± 10,175 to 177,89,105 ± 10,,,,,,,,,,,

# Reference: PMC9721426, “Novel piperine-carboximidamide hybrids: design, synthesis, and antiproliferative activity via a multi-targeted inhibitory pathway” (Journal of Enzyme Inhibition and Medicinal Chemistry, 2022)
